{"source": "the OligoGym collection", "biological_target": "HBV", "details": "ASO", "note": "Where “and” joins values, the source holds several entries; their conditions need not be identical. Equal values may be shown once. HELM strings list units from the 5' end as sugar, base in round brackets, then linkage (d deoxyribose, r ribose, m 2'-O-methyl, p phosphodiester). Methylation of C is not given here. [moe] = 2'-O-(2-methoxyethyl) (MOE); [cEt] = constrained ethyl (cEt); [sp] = phosphorothioate linkage"}
{"substance": "RNA1{[moe](A)[sp].[moe](A)[sp].[moe](G)[sp].d(A)[sp].d(T)[sp].d(G)[sp].d(A)[sp].d(G)[sp].d(G)[sp].d(C)[sp].d(A)[sp].d(T)[sp].[moe](A)[sp].[moe](G)[sp].[moe](C)[sp].[moe](A)[sp].[moe](G)}$$$$V2.0", "values": [{"measurement": "target mRNA inhibition", "setting": "HepG2, 0.07 µM", "result": "69% and 60%"}]}
{"substance": "RNA1{[moe](G)[sp].[moe](A)[sp].[moe](G)[sp].d(T)[sp].d(T)[sp].d(C)[sp].d(C)[sp].d(G)[sp].d(C)[sp].d(A)[sp].d(G)[sp].d(T)[sp].[moe](A)[sp].[moe](T)[sp].[moe](G)[sp].[moe](G)[sp].[moe](A)}$$$$V2.0", "values": [{"measurement": "target mRNA inhibition", "setting": "HepG2, 0.07 µM", "result": "61% and 62%"}]}
{"substance": "RNA1{[moe](G)[sp].[moe](T)[sp].[moe](T)[sp].d(C)[sp].d(C)[sp].d(G)[sp].d(C)[sp].d(A)[sp].d(G)[sp].d(T)[sp].d(A)[sp].d(T)[sp].d(G)[sp].[cEt](G)[sp].[cEt](A)[sp].[cEt](T)}$$$$V2.0", "values": [{"measurement": "target mRNA inhibition", "setting": "HepG2, 0.07 µM", "result": "52% and 67%"}]}
{"substance": "RNA1{[moe](A)[sp].[moe](C)[sp].[moe](T)[sp].d(G)[sp].d(G)[sp].d(A)[sp].d(G)[sp].d(C)[sp].d(C)[sp].d(A)[sp].d(C)[sp].d(C)[sp].d(A)[sp].[cEt](G)[sp].[cEt](C)[sp].[cEt](A)}$$$$V2.0", "values": [{"measurement": "target mRNA inhibition", "setting": "HepG2, 0.07 µM", "result": "64% and 73%"}]}
{"substance": "RNA1{[cEt](A)[sp].d(G)[sp].[cEt](G)[sp].d(T)[sp].[cEt](G)[sp].d(A)[sp].d(A)[sp].d(G)[sp].d(C)[sp].d(G)[sp].d(A)[sp].d(A)[sp].d(G)[sp].d(T)[sp].[moe](G)[sp].[moe](C)}$$$$V2.0", "values": [{"measurement": "target mRNA inhibition", "setting": "HepG2, 0.009375 µM", "result": 14, "unit": "%"}, {"measurement": "target mRNA inhibition", "setting": "HepG2, 0.01875 µM", "result": 21, "unit": "%"}, {"measurement": "target mRNA inhibition", "setting": "HepG2, 0.0375 µM", "result": 42, "unit": "%"}, {"measurement": "target mRNA inhibition", "setting": "HepG2, 0.075 µM", "result": 61, "unit": "%"}, {"measurement": "target mRNA inhibition", "setting": "HepG2, 0.15 µM", "result": 80, "unit": "%"}, {"measurement": "target mRNA inhibition", "setting": "HepG2, 0.3 µM", "result": 92, "unit": "%"}]}
{"substance": "RNA1{[moe](A)[sp].[moe](C)[sp].[moe](G)[sp].[moe](G)[sp].[moe](G)[sp].d(C)[sp].d(A)[sp].d(A)[sp].d(C)[sp].d(A)[sp].d(T)[sp].d(A)[sp].d(C)[sp].d(C)[sp].[moe](T)[sp].[moe](T)[sp].[moe](G)}$$$$V2.0", "values": [{"measurement": "target mRNA inhibition", "setting": "HepG2, 0.07 µM", "result": "48% and 45%"}]}
{"substance": "RNA1{[moe](C)[sp].[cEt](A)[sp].[cEt](A)[sp].d(T)[sp].d(T)[sp].d(T)[sp].d(A)[sp].d(T)[sp].d(G)[sp].d(C)[sp].d(C)[sp].d(T)[sp].d(A)[sp].[cEt](C)[sp].[cEt](A)[sp].[moe](G)}$$$$V2.0", "values": [{"measurement": "target mRNA inhibition", "setting": "HepG2, 0.07 µM", "result": "49% and 41%"}]}
{"substance": "RNA1{[moe](T)[sp].[moe](T)[sp].[moe](T)[sp].[moe](A)[sp].d(T)[sp].d(G)[sp].d(C)[sp].d(C)[sp].d(T)[sp].d(A)[sp].d(C)[sp].d(A)[sp].d(G)[sp].[moe](C)[sp].[moe](C)[sp].[moe](T)}$$$$V2.0", "values": [{"measurement": "target mRNA inhibition", "setting": "HepG2, 0.07 µM", "result": "51% and 38%"}]}
{"substance": "RNA1{[moe](C)[sp].[moe](T)[sp].[moe](G)[sp].d(G)[sp].d(A)[sp].d(G)[sp].d(C)[sp].d(C)[sp].d(A)[sp].d(C)[sp].d(C)[sp].d(A)[sp].d(G)[sp].[cEt](C)[sp].[cEt](A)[sp].[cEt](G)}$$$$V2.0", "values": [{"measurement": "target mRNA inhibition", "setting": "HepG2, 0.07 µM", "result": 60, "unit": "%"}]}
{"substance": "RNA1{[moe](G)[sp].[moe](A)[sp].d(A)[sp].d(C)[sp].d(T)[sp].d(G)[sp].d(G)[sp].d(A)[sp].d(G)[sp].d(C)[sp].d(C)[sp].[moe](A)[sp].[moe](C)[sp].[moe](C)[sp].[moe](A)[sp].[moe](G)[sp].[moe](C)}$$$$V2.0", "values": [{"measurement": "target mRNA inhibition", "setting": "HepG2, 0.07 µM", "result": "70% and 69%"}]}
{"substance": "RNA1{[moe](T)[sp].[moe](T)[sp].[moe](A)[sp].[moe](T)[sp].[moe](G)[sp].d(C)[sp].d(C)[sp].d(T)[sp].d(A)[sp].d(C)[sp].d(A)[sp].d(G)[sp].d(C)[sp].d(C)[sp].[moe](T)[sp].[moe](C)}$$$$V2.0", "values": [{"measurement": "target mRNA inhibition", "setting": "HepG2, 0.07 µM", "result": "53% and 42%"}]}
{"substance": "RNA1{[moe](A)[sp].[moe](C)[sp].d(G)[sp].d(G)[sp].d(G)[sp].d(C)[sp].d(A)[sp].d(A)[sp].d(C)[sp].d(A)[sp].d(T)[sp].[moe](A)[sp].[moe](C)[sp].[moe](C)[sp].[moe](T)[sp].[moe](T)}$$$$V2.0", "values": [{"measurement": "target mRNA inhibition", "setting": "HepG2, 0.07 µM", "result": "61% and 42%"}]}
{"substance": "RNA1{[moe](A)[sp].[moe](G)[sp].d(T)[sp].d(T)[sp].d(C)[sp].d(C)[sp].d(G)[sp].d(C)[sp].d(A)[sp].d(G)[sp].d(T)[sp].[moe](A)[sp].[moe](T)[sp].[moe](G)[sp].[moe](G)[sp].[moe](A)}$$$$V2.0", "values": [{"measurement": "target mRNA inhibition", "setting": "HepG2, 0.07 µM", "result": "63% and 64%"}]}
{"substance": "RNA1{[moe](A)[sp].[moe](C)[sp].[moe](T)[sp].[moe](G)[sp].[moe](G)[sp].[moe](A)[sp].d(G)[sp].d(C)[sp].d(C)[sp].d(A)[sp].d(C)[sp].d(C)[sp].d(A)[sp].d(G)[sp].d(C)[sp].[moe](A)[sp].[moe](G)}$$$$V2.0", "values": [{"measurement": "target mRNA inhibition", "setting": "HepG2, 0.07 µM", "result": "66% and 46%"}]}
{"substance": "RNA1{[moe](T)[sp].[moe](T)[sp].[moe](C)[sp].[moe](C)[sp].d(G)[sp].d(C)[sp].d(A)[sp].d(G)[sp].d(T)[sp].d(A)[sp].d(T)[sp].d(G)[sp].d(G)[sp].[moe](A)[sp].[moe](T)[sp].[moe](C)}$$$$V2.0", "values": [{"measurement": "target mRNA inhibition", "setting": "HepG2, 0.07 µM", "result": "43% and 49%"}]}
